How the values were obtained:
[1] = target: T1, Oxysterols receptor LXR-beta (Homo sapiens, UniProt P55055); assay: Transactivation of human GAL4-fused LXRbeta expressed in African green monkey CV1 cells; format: cell-based
T1 sequence (P55055 whole entry): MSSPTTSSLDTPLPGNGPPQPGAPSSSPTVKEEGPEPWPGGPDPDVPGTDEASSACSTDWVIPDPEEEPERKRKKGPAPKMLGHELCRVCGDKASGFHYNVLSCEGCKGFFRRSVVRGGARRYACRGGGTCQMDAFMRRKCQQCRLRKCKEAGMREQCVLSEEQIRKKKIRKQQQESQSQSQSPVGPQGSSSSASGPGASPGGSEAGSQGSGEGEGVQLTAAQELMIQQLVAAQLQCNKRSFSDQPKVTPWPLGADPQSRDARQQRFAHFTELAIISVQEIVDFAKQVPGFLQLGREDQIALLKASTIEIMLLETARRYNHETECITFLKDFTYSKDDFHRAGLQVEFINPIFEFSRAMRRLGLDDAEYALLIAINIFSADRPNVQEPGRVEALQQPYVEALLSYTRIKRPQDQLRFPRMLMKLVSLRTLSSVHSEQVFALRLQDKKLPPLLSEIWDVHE

[2] = target: T2, Nuclear receptor subfamily 1 group I member 2 (Homo sapiens, UniProt O75469); assay: Transactivation of PXR (unknown origin) expressed in human HepG2 cells; format: cell-based
T2 sequence (O75469 whole entry): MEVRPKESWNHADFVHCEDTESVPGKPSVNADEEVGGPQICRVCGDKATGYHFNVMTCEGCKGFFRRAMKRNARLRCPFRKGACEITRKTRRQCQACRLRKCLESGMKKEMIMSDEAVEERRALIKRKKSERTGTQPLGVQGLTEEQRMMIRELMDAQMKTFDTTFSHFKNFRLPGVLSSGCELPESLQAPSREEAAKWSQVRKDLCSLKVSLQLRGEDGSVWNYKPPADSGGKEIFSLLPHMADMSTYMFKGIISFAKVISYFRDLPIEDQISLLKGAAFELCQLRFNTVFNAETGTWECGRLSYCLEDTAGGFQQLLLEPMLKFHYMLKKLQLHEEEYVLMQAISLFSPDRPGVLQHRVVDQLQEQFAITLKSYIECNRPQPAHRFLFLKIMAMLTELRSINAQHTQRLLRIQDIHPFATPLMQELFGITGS

[3] = Stability in mouse liver microsomes assessed as parent compound remaining after 10 mins; format: ADME, Microsome; conditions: liver microsomes, read-out: Stability
[4] = target: T3, Nuclear receptor ROR-alpha (Homo sapiens, UniProt P35398); assay: Inverse agonist activity at human Gal4-fused RORalpha LBD (272 to 556 residues) expressed in human Jurkat cells measured after 18 hrs by steady-glo luciferase reporter gene assay; format: cell-based
T3 sequence (P35398 whole entry): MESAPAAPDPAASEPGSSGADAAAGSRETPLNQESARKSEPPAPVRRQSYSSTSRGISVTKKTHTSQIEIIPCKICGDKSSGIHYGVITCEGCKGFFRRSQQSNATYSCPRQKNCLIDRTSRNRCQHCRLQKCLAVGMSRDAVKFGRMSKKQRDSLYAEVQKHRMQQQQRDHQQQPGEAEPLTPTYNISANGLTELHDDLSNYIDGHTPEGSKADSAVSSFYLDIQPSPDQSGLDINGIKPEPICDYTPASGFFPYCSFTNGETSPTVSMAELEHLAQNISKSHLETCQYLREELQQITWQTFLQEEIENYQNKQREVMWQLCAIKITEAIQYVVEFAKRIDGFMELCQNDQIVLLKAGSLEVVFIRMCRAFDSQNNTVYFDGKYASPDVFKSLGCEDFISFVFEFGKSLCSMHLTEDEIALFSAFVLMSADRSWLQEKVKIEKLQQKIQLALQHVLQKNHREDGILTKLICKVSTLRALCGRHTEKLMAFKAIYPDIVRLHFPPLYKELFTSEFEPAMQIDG

PXR = target: T4, PXR (Homo sapiens, UniProt O75469); assay: Transactivation of PXR (unknown origin) expressed in human HepG2 cells assessed as maximum receptor activation response relative to control; format: cell-based; conditions: human HepG2 cells that express PXR, read-out: %max
T4 sequence (O75469 whole entry): T2 sequence (O75469 whole entry)

[5] = target: T5, Oxysterols receptor LXR-alpha (Homo sapiens, UniProt Q13133); assay: Transactivation of human GAL4-fused LXRalpha expressed in African green monkey CV1 cells; format: cell-based
T5 sequence (Q13133 whole entry): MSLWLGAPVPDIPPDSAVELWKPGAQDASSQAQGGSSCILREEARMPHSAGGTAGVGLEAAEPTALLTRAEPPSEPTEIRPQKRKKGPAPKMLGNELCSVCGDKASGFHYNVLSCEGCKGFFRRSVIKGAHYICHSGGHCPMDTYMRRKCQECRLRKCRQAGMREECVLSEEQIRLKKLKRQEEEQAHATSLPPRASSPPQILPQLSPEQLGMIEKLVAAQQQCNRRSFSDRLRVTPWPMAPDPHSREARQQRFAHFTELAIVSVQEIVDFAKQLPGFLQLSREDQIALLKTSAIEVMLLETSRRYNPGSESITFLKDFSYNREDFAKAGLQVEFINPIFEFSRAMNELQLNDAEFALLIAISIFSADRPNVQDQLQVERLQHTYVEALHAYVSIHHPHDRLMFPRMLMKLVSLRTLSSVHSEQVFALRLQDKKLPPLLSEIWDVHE

[6] = target: T6, Nuclear receptor ROR-beta (Homo sapiens, UniProt Q92753); assay: Inverse agonist activity at human Gal4-fused RORbeta LBD (200 to 559 residues) expressed in human Jurkat cells measured after 18 hrs by steady-glo luciferase reporter gene assay; format: cell-based
T6 sequence (Q92753 whole entry): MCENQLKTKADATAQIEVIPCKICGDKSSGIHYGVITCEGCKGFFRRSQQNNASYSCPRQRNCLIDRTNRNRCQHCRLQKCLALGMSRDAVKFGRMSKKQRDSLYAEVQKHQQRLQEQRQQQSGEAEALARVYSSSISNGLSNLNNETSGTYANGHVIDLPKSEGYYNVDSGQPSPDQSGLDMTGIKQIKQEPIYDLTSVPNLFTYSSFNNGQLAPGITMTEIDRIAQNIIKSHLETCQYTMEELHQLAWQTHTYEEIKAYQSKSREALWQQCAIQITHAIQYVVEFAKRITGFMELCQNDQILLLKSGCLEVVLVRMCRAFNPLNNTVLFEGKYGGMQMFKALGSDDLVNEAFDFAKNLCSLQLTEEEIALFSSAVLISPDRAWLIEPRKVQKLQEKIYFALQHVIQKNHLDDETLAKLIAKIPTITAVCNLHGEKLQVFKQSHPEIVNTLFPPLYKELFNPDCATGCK

[7] = Stability in human liver microsomes assessed as parent compound remaining after 10 mins; format: ADME, Microsome; conditions: liver microsomes, read-out: Stability

Row | Compound | EC50 [1] | EC50 [2] | remaining at 10 min [3] | EC50 [4] | Emax (PXR) | EC50 [5] | EC50 [6] | remaining at 10 min [7]
1 | O=C(O)[C@@H]1C[C@@H]2[C@H](C1)[C@H]2C(=O)N1CC[C@](c2ccc(C(F)(C(F)(F)F)C(F)(F)F)cc2)(S(=O)(=O)c2ccc(F)cc2)C1 | > 7.5 µM | > 33 µM | 100% | > 40 µM | 43% | > 7.5 µM | > 40 µM | 100%
2 | O=C(O)C12CCC(C(=O)N3CC[C@](c4ccc(C(F)(C(F)(F)F)C(F)(F)F)cc4)(S(=O)(=O)c4ccc(F)cc4)C3)(CC1)OC2 | > 7.5 µM | > 50 µM | 94% | > 40 µM | 5% | > 7.5 µM | > 40 µM | 90%
3 | O=C([C@H]1CC[C@](F)(C(=O)O)CC1)N1CC[C@](c2ccc(C(F)(C(F)(F)F)C(F)(F)F)cc2)(S(=O)(=O)c2ccc(F)cc2)C1 | > 7.5 µM | > 17 µM | 70% | > 40 µM | 62% | > 7.5 µM | > 40 µM | 100%
4 | O=C(O)[C@H]1CC[C@](F)(C(=O)N2CC[C@](c3ccc(C(F)(C(F)(F)F)C(F)(F)F)cc3)(S(=O)(=O)c3ccc(F)cc3)C2)CC1 | > 7.5 µM | 10.6 µM |  | > 40 µM | 31% | > 7.5 µM | > 40 µM | 
5 | O=C(O)[C@H]1CC[C@H](C(=O)N2CC[C@](c3ccc(C(F)(C(F)(F)F)C(F)(F)F)cc3)(S(=O)(=O)c3ccc(F)cc3)C2)CC1 | > 7.5 µM |  |  | > 40 µM |  | > 7.5 µM | > 40 µM | 97%
6 | CCC[C@]1(C(=O)N2CC[C@](c3ccc(C(F)(C(F)(F)F)C(F)(F)F)cc3)(S(=O)(=O)c3ccc(F)cc3)C2)CC[C@H](C(=O)O)CC1 | > 7.5 µM |  |  | > 40 µM |  | > 7.5 µM | > 40 µM | 
7 | CC[C@]1(C(=O)O)CC[C@H](C(=O)N2CC[C@](c3ccc(C(F)(C(F)(F)F)C(F)(F)F)cc3)(S(=O)(=O)c3ccc(F)cc3)C2)CC1 | > 7.5 µM | > 50 µM |  | > 40 µM | 6% | > 7.5 µM | > 40 µM | 100%
8 | COC(=O)[C@H]1CC[C@H](C(=O)N2CC[C@](c3ccc(C(F)(C(F)(F)F)C(F)(F)F)cc3)(S(=O)(=O)c3ccc(F)cc3)C2)CC1 | > 7.5 µM |  |  | > 40 µM |  | > 7.5 µM | > 40 µM | 
9 | COC1(C(=O)N2CC[C@](c3ccc(C(F)(C(F)(F)F)C(F)(F)F)cc3)(S(=O)(=O)c3ccc(F)cc3)C2)CCS(=O)(=O)CC1 | > 7.5 µM | > 50 µM |  | > 40 µM | 3% | > 7.5 µM | > 40 µM | 
10 | O=C(O)[C@@H]1[C@@H]2C[C@@H](C(=O)N3CC[C@](c4ccc(C(F)(C(F)(F)F)C(F)(F)F)cc4)(S(=O)(=O)c4ccc(F)cc4)C3)C[C@@H]21 | > 7.5 µM | > 50 µM | 84% | > 40 µM | 11% | > 7.5 µM | > 40 µM | 100%
11 | C[C@]1(C(=O)O)CC[C@H](C(=O)N2CC[C@](c3ccc(C(F)(C(F)(F)F)C(F)(F)F)cc3)(S(=O)(=O)c3ccc(F)cc3)C2)CC1 | > 7.5 µM | > 50 µM | 93% | > 40 µM | 18% | > 7.5 µM | > 40 µM | 97%
12 | O=C(O)[C@H]1[C@@H]2C[C@@H](C(=O)N3CC[C@](c4ccc(C(F)(C(F)(F)F)C(F)(F)F)cc4)(S(=O)(=O)c4ccc(F)cc4)C3)C[C@@H]21 | > 7.5 µM | > 50 µM |  | > 40 µM | 15% | > 7.5 µM | > 40 µM | 100%
13 | O=C(O)C12CCC(C(=O)N3CC[C@](c4ccc(C(F)(C(F)(F)F)C(F)(F)F)cc4)(S(=O)(=O)c4ccc(F)cc4)C3)(CC1)C2 | > 7.5 µM |  |  | > 40 µM |  | > 7.5 µM | > 40 µM | 
14 | O=C(N1CC[C@](c2ccc(C(F)(C(F)(F)F)C(F)(F)F)cc2)(S(=O)(=O)c2ccc(F)cc2)C1)C12CCC(C(=O)O)(CC1)OC2 | > 7.5 µM | > 50 µM |  | > 40 µM | 5% | > 7.5 µM | > 40 µM | 
15 | O=C([C@H]1CC[C@@](F)(C(=O)O)CC1)N1CC[C@](c2ccc(C(F)(C(F)(F)F)C(F)(F)F)cc2)(S(=O)(=O)c2ccc(F)cc2)C1 | > 7.5 µM | > 22 µM | 94% | > 40 µM | 69% | > 7.5 µM | > 40 µM | 82%
16 | CC1(C(=O)N2CC[C@](c3ccc(C(F)(C(F)(F)F)C(F)(F)F)cc3)(S(=O)(=O)c3ccc(F)cc3)C2)CCS(=O)(=O)CC1 | > 7.5 µM | > 50 µM |  | > 40 µM | 10% | > 7.5 µM | > 40 µM | 
17 | COC[C@]1(C(=O)N2CC[C@](c3ccc(C(F)(C(F)(F)F)C(F)(F)F)cc3)(S(=O)(=O)c3ccc(F)cc3)C2)CC[C@H](C(=O)O)CC1 | > 7.5 µM | > 50 µM | 88% | > 40 µM | 7% | > 7.5 µM | > 40 µM | 100%
18 | CO[C@]1(C(=O)N2CC[C@](c3ccc(C(F)(C(F)(F)F)C(F)(F)F)cc3)(S(=O)(=O)c3ccc(F)cc3)C2)CC[C@H](C(=O)O)CC1 | > 7.5 µM | > 18 µM | 95% | > 40 µM | 94% | > 7.5 µM | > 40 µM | 82%
